Reference: patent US9828350B2, “5,6-dihydro-2H-[1,4]oxazin-3-yl-amine derivatives useful as inhibitors of beta-secretase (BACE)” (Janssen Pharmaceutica NV, priority 2010, dated 2017)
Read-outs that look alike come from different tables or passages of the source.

Experiments:
Abeta total = assay: Cellular αLisa assay in SKNBE2 cells, Abeta total; assay type: cell-based, human; settings: Homo sapiens, SKNBE2, 18 h, incubated for 18 hours, read-out: Cellular αLisa assay in SKNBE2 cells Abetatotal pIC50 (converted)
Outline: (§1)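 Secreted Abeta levels were measured by sandwich αLisa, pairing biotin-AbN/25 donor beads with Ab4G8 acceptor beads for total Abeta or cAb42/26 for Abeta 1-42, read at 615 nm after 650 nm excitation following 1 hour. Cells were SKNBE2 expressing wild-type hAPP695, exposed to compound for 18 hours.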

Abeta 1-42 [1] = settings: 20 mg/kg, 24 h
Aβtotal = assay: Demonstration of in vivo efficacy, brain Aβtotal lowering (ELISA); settings: mouse brain, 30 mpk, s.c., 4 h
Description: To determine whether acute administration of an Aβ42 peptide lowering agent would reduce Aβ peptide levels in vivo, non-transgenic rodents, e.g. mice or rats were used. Animals treated with the Aβ peptide lowering agent were examined and compared to those untreated or treated with vehicle and brain levels of soluble Aβ42 and total Aβ were quantitated by standard techniques, for example, using ELISA.
A typical protocol for measuring Aβ42 lowering in vivo is shown but it is only one of many variations that could be used to optimize the levels of detectable Aβ. For example, Aβ peptide lowering compounds were formulated in 20% hydroxypropyl 3 cyclodextrin. The Aβ peptide lowering agents were administered as a single oral dose (p.o.) or a single subcutaneous dose (s.c.) to overnight fasted animals. After a certain time, usually 2 or 4 h (as indicated in Table 19), the animals were sacrificed and Aβ42 levels were analysed.
Blood was collected by decapitation and exsanguinations in EDTA-treated collection tubes. Blood was centrifuged at 1900 g for 10 minutes (min) at 4° C. and the plasma recovered and flash frozen for later analysis. The brain was removed from the cranium and hindbrain. The cerebellum was removed and the left and right hemisphere were separated. The left hemisphere was stored at −18° C. for quantitative analysis of test compound levels. The right hemisphere was rinsed with phosphate-buffered saline (PBS) buffer and immediately frozen on dry ice and stored at −80° C. until homogenization for biochemical assays.
Mouse brains from non-transgenic animals were resuspended in 8 volumes of 0.4% DEA (diethylamine)/50 mM NaCl containing protease inhibitors (Roche-11873580001 or 04693159001) per gram of tissue, e.g. for 0.158 g brain, add 1.264 ml of 0.4% DEA. All samples were homogenized in the FastPrep-24 system (MP Biomedicals) using lysing matrix D (MPBio #6913-100) at 6 m/s for 20 seconds. Homogenates were centrifuged at 221.300×g for 50 min. The resulting high speed supernatants were then transferred to fresh eppendorf tubes. Nine parts of supernatant were neutralized with 1 part 0.5 M Tris-HCl pH 6.8 and used to quantify Aβtotal and Aβ42.
To quantify the amount of Aβtotal and Aβ42 in the soluble fraction of the brain homogenates, Enzyme-Linked-Immunosorbent-Assays were used. Briefly, the standards (a dilution of synthetic Aβ1-40 and Aβ1-42, Bachem) were prepared in 1.5 ml Eppendorf tube in Ultraculture, with final concentrations ranging from 10000 to 0.3 pg/ml. The samples and standards were co-incubated with HRPO-labelled N-terminal antibody for Aβ42 detection and with the biotinylated mid-domain antibody 4G8 for Aβtotal detection. […] The plate was allowed to incubate overnight at 4° C. in order to allow formation of the antibody-amyloid complex. Following this incubation and subsequent wash steps the ELISA for Aβ42 quantification was finished by addition of Quanta Blu fluorogenic peroxidase substrate according to the manufacturer's instructions (Pierce Corp., Rockford, Ill.). A reading was performed after 10 to 15 min (excitation 320 nm/emission 420 nm).
For Aβtotal detection, a Streptavidine-Peroxidase-Conjugate was added, followed 60 min later by an additional wash step and addition of Quanta Blu fluorogenic peroxidase substrate according to the manufacturer's instructions (Pierce Corp., Rockford, Ill.). A reading was performed after 10 to 15 min (excitation 320 nm/emission 420 nm).

Abeta 1-42 [2] = assay: Cellular αLisa assay in SKNBE2 cells, Abeta 1-42; assay type: cell-based, human; settings: Homo sapiens, SKNBE2, 18 h, incubated for 18 hours, read-out: Cellular αLisa assay in SKNBE2 cells Abeta 42 pIC50 (converted)
Outline: as §1

Abeta 1-38 = settings: 20 mg/kg, 24 h
[3] = Single dose pharmacology in the Beagle dog, pharmacokinetic (PK) follow up; assay type: in vivo; settings: single dose 20 mg/kg; for concentration at 24 h: both sexes
Description: (§2) Single Dose Pharmacology in the Beagle Dog
(§3) Compound 86 was tested to evaluate the effect on the beta-amyloid profile in cerebrospinal fluid (CSF) of dogs after a single dose, in combination with pharmacokinetic (PK) follow up and limited safety evaluation. 6 Beagle dogs (3 male, 3 female) were dosed with vehicle (4 ml/kg of an aqueous suspension of 20% cyclodextrin and Tween) and 6 Beagle dogs (3 male, 3 female) were dosed with compound 86 (20 mg/kg in 2 ml/kg of an aqueous 20% cyclodextrin solution) on an empty stomach. CSF was taken in conscious animals directly from the lateral ventricle via a cannula which was screwed in the skull and covered with subcutaneous tissue and skin, before and at 4, 8 and 24 hours after dosing. 8 Hours after dosing the animals got access to their regular meal for 30 minutes. Blood was taken for PK follow up (0.5, 1, 2, 4, 8 and 24 hours) and at the time of the CSF sampling, samples for serum analysis were taken. An additional sample for serum analysis was taken 10 days after dosing. The CSF samples were used for measurement of Abeta 1-37, Abeta 1-38, Abeta 1-40 and Abeta 1-42.

[4] = Single dose pharmacology in the Beagle dog, limited safety evaluation; assay type: in vivo; settings: single dose 20 mg/kg
Description: as §2, §3

Abeta 1-40 = settings: 20 mg/kg, 24 h

- IC50 (Abeta total): 6.17 nM
- IC50 (Abeta 1-42 [2]): 6.92 nM
- concentration at 24 h ([3]; CSF, at 24 h, read-out: CSF levels): 45 ng/mL
- concentration at 24 h ([3]; plasma, up to at least 24 h post dosing, read-out: plasma levels): 1440 ng/mL
- clearance [3]: slow clearance
Compound: C[C@]1(c2cccc(NC(=O)c3ccc(Cl)cn3)c2)N=C(N)CO[C@@H]1F (single isomer, unassigned) [Compound 86, (R*,R*)—N-[3-(5-amino-2-fluoro-3-methyl-3,6-dihydro-2H-1,4-oxazin-3-yl)phenyl]-5-chloropyridine-2-carboxamide]
- decrease in Abeta 1-42 in CSF compared to own baseline (Abeta 1-42 [1]): > 90%
- Aβtotal (% Ctrl)_Mean (Aβtotal): 55 % Ctrl
- decrease in Abeta 1-38 in CSF compared to own baseline (Abeta 1-38): > 90%
- clinical abnormalities in behavior [4]: no overt clinical abnormalities in behavior
- changes in serum parameters (liver enzymes, bilirubin, ...) ([4]; serum up to 10 days after dosing): No acute or delayed changes in serum parameters
- decrease in Abeta 1-40 in CSF compared to own baseline (Abeta 1-40): > 90%
